Assay results from patent publication US7795226B2, “Control of radiation injury” (Biotempt B.V., priority 2006, dated 2010).
Values joined by “and” are separate entries in the source; they are usually repeats but may differ in a detail not shown here. Equal entries are not always repeated.

What was measured:
Assay type in all cases: in vivo
[1] = tested on: renal ischemia reperfusion in mice; experiment: mouse renal ischemia reperfusion test; parameters: BUN after 25 minutes renal ischemia, mean / Urea levels in dose-response experiment: unit not given here; details: for mortality at 72 hours post-reperfusion: 5 mg/kg i.v. before and after 25 minutes clamping, dead/total
Protocol: Six oligopeptides (i.e., A: LAGV (SEQ ID NO:121); B: AQGV (SEQ ID NO:120); C: LAG; D: AQG; E: MTR; and F: MTRV (SEO ID NO:119)) were tested and compared with PBS (control) in a double blind animal study for each peptide's relative ability to aid recovery in a mouse renal ischemia reperfusion test. In this test, the mice were anesthetized, and one kidney from each mouse was removed. The other kidney was tied off for 25 minutes, and the serum urea levels were allowed to increase. Both before and after tying off, each of the separate peptides was administered to thirty (30) different mice (5 mg oligopeptide / kg body mass intravenously), after which, the mortality of the mice was determined for each oligopeptide as well as was the BUN concentration at two hours, 24 hours and 72 hours. The results are shown in Table 3 below (excluding the results of peptide A (LAGV (SEQ ID NO:121)) obtained in Example 3).
Under inhalation anesthesia, the left kidney with its artery and vein was isolated and occluded for 25 minutes using a microvascular clamp. During surgery, animals were placed on a heating pad to maintain body temperature at 37° C. Five minutes before placing the clamp, and five minutes before releasing the clamp, 5 mg/kg of peptide dissolved in 0.1 mL of sterile saline, was administered intravenously. After reperfusion of the left kidney, the right kidney was removed. Kidney function was assessed by measuring blood urea nitrogen before clamping, and at 2, 24, and 72 hours after reperfusion.
Peptides were tested at 0.3, 1, 3, 10 and 30 mg/kg dosages given as described in Example 3. P values (calculated by Mann Whitney U-test (SPSS for Windows)) of serum urea levels of PBS compared to peptide D groups at 72 hours post-clamping were at 0.3 mg/kg 0.001, at 1 mg/kg 0.009, at 3 mg/kg 0.02, at 10 mg/kg 0.000, and at 30 mg/kg 0.23; for peptide B (SEQ ID NO:120) groups, these P-values were 0.88, 0.054, 0.000, 0.001 and 0.003.

[2] = tested on: LPS (E. coli 026:B6)-induced sepsis in BALB/c mice; experiment: endotoxin shock survival after early or late treatment with peptide
Protocol: (§1) Mice used in sepsis or septic shock experiments: Female BALB/c mice of eight to twelve weeks of age were used for all experiments. The animals were bred in our facility under specific pathogen-free conditions according to the protocols described in the […] of European Laboratory Animal Science Associations (FELASA) Working group on Animal Health (Laboratory Animals 28:1-24, 1994).
(§2) Injection protocols: For the endotoxin model, BALB/c mice were injected i.p. with 150-300 μg LPS (E. coli 026:B6; Difco Lab., Detroit, Mich., USA). Control groups were treated with PBS i.p. only. To test the effect of peptides, they were dissolved in PBS and injected i.p. at predetermined points in time after LPS treatment.
A further set of septic shock experiments were set up to determine which of the peptides LQG, LQGV (SEQ ID NO:117), VLPALP (SEQ ID NO:140), VLPALPQ (SEQ ID NO:143), MTR, MTRV (SEQ ID NO:119), VVC or AQGV (SEQ ID NO:120) under study were most suited to be used early and/or late after or throughout the development of shock. For determining the percent of endotoxin shock survival after late or early treatment with peptide, BALB/c mice were injected i.p. with 300 μg LPS (E. coli 026:B6; Difco Lab., Detroit, Mich. USA), predetermined to be leading to 100% mortality in 48 hours without peptide treatment.
To evaluate the effect of peptide treatment at an early or late point in time of development of shock, mice were treated at two hours or at 24 hours after LPS injection by i.p. injection with test peptide at 5 mg/kg bodyweight. The mice were followed for 84 hours instead of for 48 hours in the earlier experiments.

[3] = tested on: LPS (E. coli 026:B6)-induced septic shock in BALB/c mice; experiment: LPS-induced septic shock, single dose of peptide
Protocol: as §1, §2
Mice were scored for sickness severity using the following measurement scheme: • 0 No abnormalities. • 1 Percolated fur, but no detectable behavior differences compared to normal mice. • 2 Percolated fur, huddle reflex, responds to stimuli (such as tap on cage), just as active during handling as healthy mouse. • 3 Slower response to tap on cage, passive or docile when handled, but still curious when alone in a new setting. • 4 Lack of curiosity, little or no response to stimuli, quite immobile. • 5 Labored breathing, inability or slow to self-right after being rolled onto back (moribund, sacrificed). • D Dead.
A first set of septic shock experiments were set up to determine which of the peptides LQG, LQGV (SEQ ID NO:117), VLPALP (SEQ ID NO:140), VLPALPQ (SEQ ID NO:143), MTR, MTRV (SEQ ID NO:119), VVC or QVVC (SEQ ID NO:118) were capable of inhibiting lipopolysaccharide (LPS)-induced septic shock in mice by treating mice with a single dose of peptide at two hours after LPS treatment. Peptides were used at 5 mg/kg bodyweight. BALB/c mice were injected i.p. with escalating doses LPS (E. coli 026:B6; Difco Lab., Detroit, Mich. USA), predetermined to be leading to 80 to 100% mortality in 24 to 72 hours.
To test the effect of peptide early in the development of shock, mice were treated at two hours or at 24 hours after treatment with varying doses of LPS by i.p. injection with test peptide at 5 mg/kg bodyweight.

[4] = 2 hours after reperfusion, 5 mg/kg i.v.
[5] = 24 hours after reperfusion, 5 mg/kg i.v.
[6] = 72 hours after reperfusion, 5 mg/kg i.v.
[7] = t = 0 hr (before clamping), 5 mg/kg i.v.
[8] = 0 hours, peptide 5 mg/kg 2 hours after LPS
[9] = 0 hours, peptide 5 mg/kg 24 hours after LPS
[10] = 14 hours, peptide 5 mg/kg 2 hours after LPS
[11] = 14 hours, peptide 5 mg/kg 24 hours after LPS
[12] = 24 hours, peptide 5 mg/kg 2 hours after LPS
[13] = 24 hours, peptide 5 mg/kg 24 hours after LPS
[14] = 48 hours, peptide 5 mg/kg 2 hours after LPS
[15] = 48 hours, peptide 5 mg/kg 24 hours after LPS
[16] = 84 hours, peptide 5 mg/kg 2 hours after LPS
[17] = 84 hours, peptide 5 mg/kg 24 hours after LPS
[18] = LPS dose 7**, single dose 5 mg/kg
[19] = LPS dose 7*, single dose 5 mg/kg
[20] = LPS dose 8, single dose 5 mg/kg
[21] = LPS dose 8, single dose 5 mg/kg, 5 mg/kg
[22] = LPS dose 10, single dose 5 mg/kg
[23] = LPS dose 10, single dose 5 mg/kg, 5 mg/kg
[24] = 5 mg/kg given both early (2 hours) or late (24 hours)

LAGV (tetramer peptide)
BUN concentration versus the PBS control group (in words) ([1]; 5 mg/kg i.v.): reduced BUN concentration
mortality versus the PBS control group (in words) ([1]; 5 mg/kg i.v.): significant reduction in mortality
mortality at 72 hours post-reperfusion [1]: 6/10
BUN after 25 minutes renal ischemia, mean [1, 4]: 14.03
BUN after 25 minutes renal ischemia, mean [1, 5]: 38.86
BUN after 25 minutes renal ischemia, mean [1, 6]: 32.8875
BUN after 25 minutes renal ischemia, mean [1, 7]: 8.167

LQGV
BUN after 25 minutes renal ischemia, mean [1, 4]: 17.53
BUN after 25 minutes renal ischemia, mean [1, 5]: 56.08
BUN after 25 minutes renal ischemia, mean [1, 6]: 73.18
BUN after 25 minutes renal ischemia, mean [1, 7]: 7.518
% Survival [2, 8]: 100%
% Survival [2, 9]: 100%
% Survival [2, 10]: 100%
% Survival [2, 11]: 100%
% Survival [2, 12]: 100%
% Survival [2, 13]: 100%
% Survival [2, 14]: 100%
% Survival [2, 15]: 0%
% Survival [2, 16]: 100%
% Survival [2, 17]: 0%
protective effect against LPS-induced sepsis (in words) ([3]; 5 mg/kg i.p.): marked protective effect
mice with sickness score 1, effect at t = 24 hours [3, 18]: 6
mice with sickness score 1, effect at t = 48 hours [3, 18]: 6
mice with sickness score 1, effect at t = 24 hours [3, 19]: 2
mice with sickness score 1, effect at t = 48 hours [3, 19]: 6
mice with sickness score 2, effect at t = 24 hours [3, 19]: 4
mice with sickness score 0, effect at t = 48 hours [3, 20]: 4
mice with sickness score 1, effect at t = 24 hours [3, 20]: 3
mice with sickness score 2, effect at t = 48 hours [3, 20]: 1
mice with sickness score 3, effect at t = 24 hours [3, 20]: 1
mice with sickness score 2, effect at t = 24 hours [3, 21]: 5 and 3
mice scored D (dead), effect at t = 48 hours [3, 22]: 1
mice with sickness score 1, effect at t = 24 hours [3, 22]: 2
mice with sickness score 2, effect at t = 48 hours [3, 22]: 1
mice with sickness score 3, effect at t = 24 hours [3, 22]: 1
mice with sickness score 4, effect at t = 24 hours [3, 22]: 1
mice with sickness score 1, effect at t = 48 hours [3, 23]: 6 and 4

VLPALPQ (septamer peptide)
BUN after 25 minutes renal ischemia, mean [1, 4]: 13.58
BUN after 25 minutes renal ischemia, mean [1, 5]: 37.79
BUN after 25 minutes renal ischemia, mean [1, 6]: 37.6375
BUN concentration versus PBS (in words) ([1]; at 72 hours post-reperfusion, 5 mg/kg i.v.): did much better in terms of reduced BUN concentration
BUN after 25 minutes renal ischemia, mean [1, 7]: 8.257
% Survival [2, 8]: 100%
% Survival [2, 9]: 100%
% Survival [2, 10]: 100%
% Survival [2, 11]: 100%
% Survival [2, 12]: 100%
% Survival [2, 13]: 100%
% Survival [2, 14]: 0%
% Survival [2, 15]: 100%
% Survival [2, 16]: 0%
% Survival [2, 17]: 100%
mice scored D (dead), effect at t = 24 hours [3, 18]: 1
mice scored D (dead), effect at t = 48 hours [3, 18]: 6
mice with sickness score 5, effect at t = 24 hours [3, 18]: 5
mice scored D (dead), effect at t = 48 hours [3, 19]: 2
mice with sickness score 3, effect at t = 24 hours [3, 19]: 3
mice with sickness score 4, effect at t = 24 hours [3, 19]: 3
mice with sickness score 4, effect at t = 48 hours [3, 19]: 2
mice with sickness score 5, effect at t = 48 hours [3, 19]: 2
mice scored D (dead), effect at t = 24 hours [3, 20]: 2
mice scored D (dead), effect at t = 48 hours [3, 20]: 6
mice with sickness score 2, effect at t = 24 hours [3, 20]: 1
mice with sickness score 3, effect at t = 24 hours [3, 20]: 3
mice with sickness score 3, effect at t = 48 hours [3, 20]: 1
mice with sickness score 4, effect at t = 48 hours [3, 20]: 3
mice with sickness score 5, effect at t = 24 hours [3, 20]: 3
mice with sickness score 5, effect at t = 48 hours [3, 20]: 2
mice with sickness score 4, effect at t = 24 hours [3, 21]: 2 and 1
mice scored D (dead), effect at t = 24 hours [3, 22]: 3
mice scored D (dead), effect at t = 48 hours [3, 22]: 5
mice with sickness score 3, effect at t = 24 hours [3, 22]: 1
mice with sickness score 4, effect at t = 24 hours [3, 22]: 2
mice with sickness score 5, effect at t = 48 hours [3, 22]: 1
mice with sickness score 5, effect at t = 24 hours [3, 23]: 4 and 2

AQGV
Mortality in dose-response experiment ([1]; 0.3 mg/kg, 24 hours): 0-9
Urea levels in dose-response experiment ([1]; 0.3 mg/kg, 24 hours): 62.4
Mortality in dose-response experiment ([1]; 0.3 mg/kg, 72 hours): 2-10
Urea levels in dose-response experiment ([1]; 0.3 mg/kg, 72 hours): 86.7
Mortality in dose-response experiment ([1]; 1.0 mg/kg, 24 hours): 0-10
Urea levels in dose-response experiment ([1]; 1.0 mg/kg, 24 hours): 50.0
Mortality in dose-response experiment ([1]; 1.0 mg/kg, 72 hours): 1-8
Urea levels in dose-response experiment ([1]; 1.0 mg/kg, 72 hours): 52.6
Mortality in dose-response experiment ([1]; 3.0 mg/kg, 24 hours): 1-10
Urea levels in dose-response experiment ([1]; 3.0 mg/kg, 24 hours): 37.4
Mortality in dose-response experiment ([1]; 3.0 mg/kg, 72 hours): 0-10
Urea levels in dose-response experiment ([1]; 3.0 mg/kg, 72 hours): 19.6
BUN concentration versus the PBS control group (in words) ([1]; 5 mg/kg i.v.): reduced BUN concentration
mortality versus the PBS control group (in words) ([1]; 5 mg/kg i.v.): significant reduction in mortality
mortality at 72 hours post-reperfusion [1]: 0/10
Mortality in dose-response experiment ([1]; 10.0 mg/kg, 24 hours): 0-10
Urea levels in dose-response experiment ([1]; 10.0 mg/kg, 24 hours): 41.2
Mortality in dose-response experiment ([1]; 10.0 mg/kg, 72 hours): 0-8
Urea levels in dose-response experiment ([1]; 10.0 mg/kg, 72 hours): 37.1
Mortality in dose-response experiment ([1]; 30.0 mg/kg, 24 hours): 0-8
Urea levels in dose-response experiment ([1]; 30.0 mg/kg, 24 hours): 47.8
Mortality in dose-response experiment ([1]; 30.0 mg/kg, 72 hours): 3-10
Urea levels in dose-response experiment ([1]; 30.0 mg/kg, 72 hours): 38.0
BUN after 25 minutes renal ischemia, mean [1, 4]: 16.62
BUN after 25 minutes renal ischemia, mean [1, 5]: 26.36
BUN after 25 minutes renal ischemia, mean [1, 6]: 22.31
BUN after 25 minutes renal ischemia, mean [1, 7]: 9.713
% Survival [2, 8]: 100%
% Survival [2, 9]: 100%
clinical signs of shock at 84 hours after LPS-treatment (in words) [2, 24]: no remaining clinical signs of shock
survival at 84 hours after LPS-treatment [2, 24]: 100%
% Survival [2, 10]: 100%
% Survival [2, 11]: 100%
% Survival [2, 12]: 100%
% Survival [2, 13]: 100%
% Survival [2, 14]: 100%
% Survival [2, 15]: 100%
% Survival [2, 16]: 100%
% Survival [2, 17]: 100%
